Assay results from patent publication US20260022142A1, “MACROCYCLIC IMMUNOMODULATORS” (Bristol-Myers Squibb Company, priority 2022, published 2026).
Numbered stars: 1 amine (or outer) side, 2 acyl side, 3 side chain; on linkers, the order of the positions; unused ones are H or OH. Bridge positions count the residues as written; N and C are the ends. Square brackets hold non-standard residues; d marks the D form. Peptide text beside a SMILES is read from it. * marks the point of attachment. Phe(3,4-Cl2) = N[C@@H](Cc1ccc(Cl)c(Cl)c1)C(=O)O; Phe(3,4-F2) = N[C@@H](Cc1ccc(F)c(F)c1)C(=O)O; X9 = O=C([C@H](Cc1cc(F)c(F)cc1F)N[*:1])[*:2]; Bip = N[C@@H](Cc1ccc(-c2ccccc2)cc1)C(=O)O; Phe(3-Me) = Cc1cccc(C[C@H](N)C(=O)O)c1; Bta = N[C@@H](Cc1csc2ccccc12)C(=O)O; X6 = O=C(Cc1ccc(CN[*:1])cc1)[*:2]; 4Pal = N[C@@H](Cc1ccncc1)C(=O)O; X1 = O=C(CN1CCN([*:1])CC1)[*:2]; Cha = N[C@@H](CC1CCCCC1)C(=O)O; Cit = NC(=O)NCCC[C@H](N)C(=O)O; 3Abz = Nc1cccc(C(=O)O)c1; Carboxymethyl = O=C(O)C*; Orn = NCCC[C@H](N)C(=O)O; Aun = NCCCCCCCCCCC(=O)O; Dab = NCC[C@H](N)C(=O)O; Dap = NC[C@H](N)C(=O)O; AEEA = NCCOCCOCC(=O)O; Ac3c = NC1(C(=O)O)CC1

Target: T1, PD-1/PD-L1 interaction (PE-labeled human PD-L1-Ig binding to Jurkat cell line over-expressing human PD-1) (Homo sapiens, UniProt Q15116)
T1 construct: expressed in transfected cells; host or cells: Jurkat
T1 sequence (Q15116 25-288): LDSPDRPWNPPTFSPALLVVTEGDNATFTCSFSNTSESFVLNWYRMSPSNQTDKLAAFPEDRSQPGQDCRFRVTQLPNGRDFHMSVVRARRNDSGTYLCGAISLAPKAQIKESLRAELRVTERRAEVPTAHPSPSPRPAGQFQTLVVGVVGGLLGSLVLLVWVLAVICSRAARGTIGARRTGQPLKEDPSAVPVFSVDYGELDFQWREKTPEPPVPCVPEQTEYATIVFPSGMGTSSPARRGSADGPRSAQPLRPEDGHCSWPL
Assay: Jurkat-PD-1 Cell Binding High-Content Screening Assay (CBA)
Format: cell-based
Conditions: Jurkat cell line over-expressing human PD-1; PE-labeled PD-L1-Ig 20 nM final; read-out: Jurkat hPD1-PDL1 IC50
Summary of the method: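 Read-out is high-content imaging of cell-bound phycoerythrin-tagged PD-L1-Ig on fixed, Hoechst-counterstained Jurkat cells that over-express human PD-1. Compound exposure lasts 2 h at 37° C before the labeled ligand (20 nM final) is added for a further hour.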

CC(C)C[C@H]1NC(=O)[C@H](CCCN)NC(=O)[C@H](Cc2ccc(O)cc2)NC(=O)[C@H](Cc2ccc(-c3ccccc3)cc2)NC(=O)[C@H](Cc2ccc(OCC(=O)O)cc2)NC(=O)[C@H](Cc2ccc(Cl)c(Cl)c2)NC(=O)[C@H](CC(=O)O)NC(=O)[C@H](Cc2ccc(OCC(=O)O)cc2)NC(=O)[C@H](CN)NC(=O)CSC[C@@H](C(=O)N[C@@H](CCN)C(=O)NCCOCCOCC(=O)NCCCCCCCCCCC(=O)O)NC(=O)[C@H](CCCN)NC(=O)[C@H](C(C)C)NC(=O)[C@H](CC2CCCCC2)NC(=O)[C@H](CCN)NC1=O [Compound 1307] ({CH2CO}-[Dap]Y(Carboxymethyl)D[Phe(3,4-Cl2)]Y(Carboxymethyl)[Bip]Y[Orn][dL][Dab][Cha]V[Orn]C[Dab][AEEA][Aun]-OH; thioether N-14)
IC50: 0.0496 µM

CC(C)C[C@H]1NC(=O)[C@H](CCCN)NC(=O)[C@H](Cc2ccc(O)cc2)NC(=O)[C@H](Cc2ccc(-c3ccccc3)cc2)NC(=O)[C@H](C(C)C)NC(=O)[C@H](Cc2cc(F)c(F)cc2F)NC(=O)[C@H](CC(=O)O)NC(=O)[C@H](Cc2ccc(OCC(=O)O)cc2)NC(=O)[C@H](CN)NC(=O)CSC[C@@H](C(=O)N[C@@H](CCN)C(=O)NCCOCCOCC(=O)NCCCCCCCCCCC(=O)O)NC(=O)[C@H](CCCN)NC(=O)[C@H](C(C)C)NC(=O)[C@H](CC2CCCCC2)NC(=O)[C@H](CCN)NC1=O [Compound 1308] ({CH2CO}-[Dap]Y(Carboxymethyl)D[X9]V[Bip]Y[Orn][dL][Dab][Cha]V[Orn]C[Dab][AEEA][Aun]-OH; thioether N-14)
IC50: 0.0597 µM

CC(C)C[C@H]1NC(=O)[C@H](CCCN)NC(=O)[C@H](Cc2ccc(O)cc2)NC(=O)[C@H](Cc2ccc(-c3ccccc3)cc2)NC(=O)[C@H](Cc2ccc(OCC(=O)O)cc2)NC(=O)[C@H](Cc2csc3ccccc23)NC(=O)[C@H](CC(=O)O)NC(=O)[C@H](Cc2ccc(OCC(=O)O)cc2)NC(=O)[C@H](CN)NC(=O)CSC[C@@H](C(=O)N[C@@H](CCN)C(=O)NCCOCCOCC(=O)NCCCCCCCCCCC(=O)O)NC(=O)[C@H](CCCN)NC(=O)[C@H](C(C)C)NC(=O)[C@H](CC2CCCCC2)NC(=O)[C@H](CCN)NC1=O [Compound 1309] ({CH2CO}-[Dap]Y(Carboxymethyl)D[Bta]Y(Carboxymethyl)[Bip]Y[Orn][dL][Dab][Cha]V[Orn]C[Dab][AEEA][Aun]-OH; thioether N-14)
IC50: 0.0634 µM

CC(C)C[C@H]1NC(=O)[C@H](CCCN)NC(=O)[C@H](Cc2ccc(O)cc2)NC(=O)[C@H](Cc2ccc(-c3ccccc3)cc2)NC(=O)[C@H](C(C)C)NC(=O)[C@H](Cc2ccc(Cl)c(Cl)c2)NC(=O)[C@H](CC(=O)O)NC(=O)[C@H](Cc2ccc(OCC(=O)O)cc2)NC(=O)[C@H](CN)NC(=O)CSC[C@@H](C(=O)N[C@@H](CCN)C(=O)NCCOCCOCC(=O)NCCCCCCCCCCC(=O)O)NC(=O)[C@H](CCCN)NC(=O)[C@H](C(C)C)NC(=O)[C@H](CC2CCCCC2)NC(=O)[C@H](CCN)NC1=O [Compound 1310] ({CH2CO}-[Dap]Y(Carboxymethyl)D[Phe(3,4-Cl2)]V[Bip]Y[Orn][dL][Dab][Cha]V[Orn]C[Dab][AEEA][Aun]-OH; thioether N-14)
IC50: 0.0646 µM

CC(C)C[C@H]1NC(=O)[C@H](CCCN)NC(=O)[C@H](Cc2ccc(O)cc2)NC(=O)[C@H](Cc2ccc(-c3ccccc3)cc2)NC(=O)[C@H](Cc2ccc(OCC(=O)O)cc2)NC(=O)[C@H](Cc2ccc(O)cc2)NC(=O)[C@H](CC(=O)O)NC(=O)[C@H](Cc2ccc(OCC(=O)O)cc2)NC(=O)[C@H](CN)NC(=O)CSC[C@@H](C(=O)N[C@@H](CCN)C(=O)NCCOCCOCC(=O)NCCCCCCCCCCC(=O)O)NC(=O)[C@H](CCCN)NC(=O)[C@H](C(C)C)NC(=O)[C@H](CC2CCCCC2)NC(=O)[C@H](CCN)NC1=O [Compound 1311] ({CH2CO}-[Dap]Y(Carboxymethyl)DYY(Carboxymethyl)[Bip]Y[Orn][dL][Dab][Cha]V[Orn]C[Dab][AEEA][Aun]-OH; thioether N-14)
IC50: 0.103 µM

CC(C)C[C@@H]1NC(=O)[C@H](Cc2c[nH]c3ccccc23)NC(=O)[C@H](CC(=O)O)NC(=O)[C@H](Cc2ccncc2)NC(=O)[C@H](Cc2ccc(OCC(=O)O)cc2)NC(=O)CSC[C@@H](C(=O)Nc2cccc(C(=O)NCCCCCCCCCCC(=O)O)c2)NC(=O)[C@H](CCCN)NC(=O)[C@H](C(C)C)NC(=O)[C@H](CC2CCCCC2)NC(=O)[C@H](CCN)NC(=O)[C@@H](CC(C)C)NC(=O)[C@H](CCCN)NC(=O)[C@H](C(C)C)NC(=O)[C@H](Cc2ccc(-c3ccccc3)cc2)NC1=O [Compound 1312] ({CH2CO}-Y(Carboxymethyl)[4Pal]DWL[Bip]V[Orn][dL][Dab][Cha]V[Orn]C[3Abz][Aun]-OH; thioether N-14)
IC50: 0.105 µM

CC(C)C[C@H]1NC(=O)[C@H](CCCN)NC(=O)[C@H](Cc2ccc(O)cc2)NC(=O)[C@H](Cc2ccc(-c3ccccc3)cc2)NC(=O)[C@H](Cc2ccc(OCC(=O)O)cc2)NC(=O)[C@H](Cc2ccc(F)c(F)c2)NC(=O)[C@H](CC(=O)O)NC(=O)[C@H](Cc2ccc(OCC(=O)O)cc2)NC(=O)[C@H](CN)NC(=O)CSC[C@@H](C(=O)N[C@@H](CCN)C(=O)NCCOCCOCC(=O)NCCCCCCCCCCC(=O)O)NC(=O)[C@H](CCCN)NC(=O)[C@H](C(C)C)NC(=O)[C@H](CC2CCCCC2)NC(=O)[C@H](CCN)NC1=O [Compound 1313] ({CH2CO}-[Dap]Y(Carboxymethyl)D[Phe(3,4-F2)]Y(Carboxymethyl)[Bip]Y[Orn][dL][Dab][Cha]V[Orn]C[Dab][AEEA][Aun]-OH; thioether N-14)
IC50: 0.109 µM

CC(C)C[C@@H]1NC(=O)[C@H](Cc2c[nH]c3ccccc23)NC(=O)[C@H](CC(=O)O)NC(=O)[C@H](Cc2ccncc2)NC(=O)[C@H](Cc2ccc(OCC(=O)O)cc2)NC(=O)CSC[C@@H](C(=O)N2CCN(CC(=O)NCCCCCCCCCCC(=O)O)CC2)NC(=O)[C@H](CCCNC(N)=O)NC(=O)[C@H](C(C)C)NC(=O)[C@H](CC2CCCCC2)NC(=O)[C@H](CCN)NC(=O)[C@@H](CC(C)C)NC(=O)[C@H](CCCN)NC(=O)[C@H](C(C)C)NC(=O)[C@H](Cc2ccc(-c3ccccc3)cc2)NC1=O [Compound 1314] ({CH2CO}-Y(Carboxymethyl)[4Pal]DWL[Bip]V[Orn][dL][Dab][Cha]V[Cit]C[X1][Aun]-OH; thioether N-14)
IC50: 0.11 µM

Cc1cccc(C[C@@H]2NC(=O)[C@H](CC(=O)O)NC(=O)[C@H](Cc3ccc(OCC(=O)O)cc3)NC(=O)[C@H](CN)NC(=O)CSC[C@@H](C(=O)N[C@@H](CCN)C(=O)NCCCCCCCCCCC(=O)O)NC(=O)[C@@H](CO)NC(=O)[C@H](C(C)C)NC(=O)[C@H](CC3CCCCC3)NC(=O)[C@H](CCN)NC(=O)[C@@H](CC(C)C)NC(=O)[C@H](CCCN)NC(=O)[C@H](CCCNC(N)=O)NC(=O)[C@H](Cc3ccc(-c4ccccc4)cc3)NC(=O)[C@H](C(C)C)NC2=O)c1 [Compound 2000] ({CH2CO}-[Dap]Y(Carboxymethyl)D[Phe(3-Me)]V[Bip][Cit][Orn][dL][Dab][Cha]V[dS]C[Dab][Aun]-OH; thioether N-14)
IC50: 0.0143 µM

Cc1cccc(C[C@@H]2NC(=O)[C@H](CC(=O)O)NC(=O)[C@H](Cc3ccc(OCC(=O)O)cc3)NC(=O)[C@H](CN)NC(=O)CSC[C@@H](C(=O)N[C@@H](CCCCN)C(=O)NCCCCCCCCCCC(=O)O)NC(=O)[C@@H](CO)NC(=O)[C@H](C(C)C)NC(=O)[C@H](CC3CCCCC3)NC(=O)[C@H](CCN)NC(=O)[C@@H](CC(C)C)NC(=O)[C@H](CCCN)NC(=O)[C@H](C(C)C)NC(=O)[C@H](Cc3ccc(-c4ccccc4)cc3)NC(=O)[C@H](C(C)C)NC2=O)c1 [Compound 2001] ({CH2CO}-[Dap]Y(Carboxymethyl)D[Phe(3-Me)]V[Bip]V[Orn][dL][Dab][Cha]V[dS]CK[Aun]-OH; thioether N-14)
IC50: 0.0324 µM

Cc1cccc(C[C@@H]2NC(=O)[C@H](CC(=O)O)NC(=O)[C@H](Cc3ccc(OCC(=O)O)cc3)NC(=O)[C@H](CN)NC(=O)CSC[C@@H](C(=O)NCc3ccc(CC(=O)N[C@@H](CCN)C(=O)NCCCCCCCCCCC(=O)O)cc3)NC(=O)[C@H](CN)NC(=O)[C@H](C(C)C)NC(=O)[C@H](CC3CCCCC3)NC(=O)[C@H](CCN)NC(=O)[C@@H](CC(C)C)NC(=O)[C@H](CCCN)NC(=O)[C@H](C(C)C)NC(=O)[C@H](Cc3ccc(-c4ccccc4)cc3)NC(=O)[C@H](C(C)C)NC2=O)c1 [Compound 2003] ({CH2CO}-[Dap]Y(Carboxymethyl)D[Phe(3-Me)]V[Bip]V[Orn][dL][Dab][Cha]V[Dap]C[X6][Dab][Aun]-OH; thioether N-14)
IC50: 0.136 µM

Cc1cccc(C[C@@H]2NC(=O)[C@H](CC(=O)O)NC(=O)[C@H](Cc3ccc(OCC(=O)O)cc3)NC(=O)[C@H](CN)NC(=O)CSC[C@@H](C(=O)N[C@@H](CCCN)C(=O)NCc3ccc(CC(=O)NCCCCCCCCCCC(=O)O)cc3)NC(=O)[C@H](CN)NC(=O)[C@H](C(C)C)NC(=O)[C@H](CC3CCCCC3)NC(=O)[C@H](CCN)NC(=O)[C@@H](CC(C)C)NC(=O)[C@H](CCCN)NC(=O)[C@H](C(C)C)NC(=O)[C@H](Cc3ccc(-c4ccccc4)cc3)NC(=O)[C@H](C(C)C)NC2=O)c1 [Compound 2004] ({CH2CO}-[Dap]Y(Carboxymethyl)D[Phe(3-Me)]V[Bip]V[Orn][dL][Dab][Cha]V[Dap]C[Orn][X6][Aun]-OH; thioether N-14)
IC50: 0.0186 µM

CC[C@H](C)[C@@H]1NC(=O)[C@H](Cc2ccc(-c3ccccc3)cc2)NC(=O)[C@H](C(C)C)NC(=O)[C@H](Cc2c[nH]c3ccccc23)NC(=O)[C@H](CC(=O)O)NC(=O)[C@H](Cc2ccc(OCC(=O)O)cc2)NC(=O)[C@H](Cc2ccncc2)NC(=O)CSC[C@@H](C(=O)N[C@@H](CCCN)C(=O)NCCOCCOCC(=O)NC2(C(=O)NCCCCCCCCCCC(=O)O)CC2)NC(=O)[C@H]([C@@H](C)O)NC(=O)[C@H](C(C)C)NC(=O)[C@H](CC(C)C)NC(=O)[C@H](CCN)NC(=O)[C@@H](CC(C)C)NC(=O)[C@H](CCCN)NC1=O [Compound 2005] ({CH2CO}-[4Pal]Y(Carboxymethyl)DWV[Bip]I[Orn][dL][Dab]LVTC[Orn][AEEA][Ac3c][Aun]-OH; thioether N-14)
IC50: 0.0116 µM
